This is an account of results in patent US20190367516A1 (Bayer Pharma Aktiengesellschaft, priority 2015, published 2019).

For orientation: EC50 means the midpoint of the concentration-response curve.

Like-named read-outs stand apart in the source and are kept apart here.

In assay [1] the target is T1, human M2 receptor (Homo sapiens, UniProt P08172).
T1 sequence (P08172 1-466): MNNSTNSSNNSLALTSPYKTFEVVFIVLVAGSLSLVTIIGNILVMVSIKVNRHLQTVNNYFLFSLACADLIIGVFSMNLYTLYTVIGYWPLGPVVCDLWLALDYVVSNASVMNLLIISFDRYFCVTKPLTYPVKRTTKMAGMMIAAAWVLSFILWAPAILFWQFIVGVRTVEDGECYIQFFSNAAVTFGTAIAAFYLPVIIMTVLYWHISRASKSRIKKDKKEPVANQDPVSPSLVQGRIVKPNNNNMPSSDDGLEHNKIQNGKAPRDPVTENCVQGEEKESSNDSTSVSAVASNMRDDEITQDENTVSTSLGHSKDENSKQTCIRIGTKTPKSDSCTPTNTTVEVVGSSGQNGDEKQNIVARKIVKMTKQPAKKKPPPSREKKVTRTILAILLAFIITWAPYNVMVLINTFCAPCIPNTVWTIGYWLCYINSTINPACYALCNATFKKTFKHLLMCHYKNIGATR
In kind it is cell-based. As to conditions: α >1 = positive cooperativity. The method, then:
B-1.2. Determination of Positive Cooperativity (α Factor)
In contrast to the EC50 determination of the test substances (see B-1.1), however, this is not done using one acetylcholine concentration; instead, every concentration of the test substance is combined with an acetylcholine 8-point dose-response curve. […] The shift in the acetylcholine dose-response curve in the presence of increasing concentrations of the test substance is analysed and quantified by means of GraphPad PRISM (Allosteric EC50 shift). […] Positive cooperativity is the hallmark of a positive allosteric modulator. […] The greater the magnitude of the α value, the greater the extent of cooperativity between orthosteric and allosteric.

Assay [2] has as its target T1, human M2 receptor. As to conditions: for Emax: read-out: Efficiency, boosting of the acetylcholine effect at EC20 acetylcholine concentration.
Where [3] appears, read: shift in the acetylcholine dose-response curve (Allosteric EC50 shift, GraphPad PRISM).
Setting [4] is: Receptor activity EC50, M2-GIRK1/4 activation test, acetylcholine at EC20, allosteric potency, in some cases mean values from two or more determinations.
Where [5] appears, read: Receptor activity EC50, allosteric potency at EC20 acetylcholine, M2-GIRK1/4 reporter cells, in some cases mean of two or more determinations.

On to `CC[C@@H](NC(=O)c1cn(-c2ccc(F)cc2F)c2nc(N3CCC4(C3)CC4(F)F)ccc2c1=O)C(F)(F)F` (mixture of isomers) [Example 29, 7-(1,1-Difluoro-5-azaspiro[2.4]hept-5-yl)-1-(2,4-difluorophenyl)-4-oxo-N-[(2R)-1,1,1-trifluorobutan-2-yl]-1,4-dihydro-1,8-naphthyridine-3-carboxamide (diastereomer mixture)], for which, in assay [1] (setting [3]), the “Cooperativity (alpha factor)” value came out at 4. This compound yielded an EC50 in assay [2] (setting [4]) of 0.112 µM.

As to `CC[C@@H](NC(=O)c1cn(-c2ccc(F)cc2F)c2nc(N3CCC(C)(F)C3)ccc2c1=O)C(F)(F)F` (mixture of isomers) [Example 30, 1-(2,4-Difluorophenyl)-7-(3-fluoro-3-methylpyrrolidin-1-yl)-4-oxo-N-[(2R)-1,1,1-trifluorobutan-2-yl]-1,4-dihydro-1,8-naphthyridine-3-carboxamide (diastereomer mixture)], the “Cooperativity (alpha factor)” value in assay [1] (setting [3]) was determined as 11. This compound had an EC50 in assay [2] (setting [4]) of 0.095 µM.

In the case of `CC[C@@H](NC(=O)c1cn(-c2ccc(F)cc2F)c2nc(N3CCC(C)(OC)C3)ccc2c1=O)C(F)(F)F` (mixture of isomers) [Example 191, 1-(2,4-Difluorophenyl)-7-[3-methoxy-3-methylpyrrolidin-1-yl]-4-oxo-N-[(2R)-1,1,1-trifluorobutan-2-yl]-1,4-dihydro-1,8-naphthyridine-3-carboxamide], the “Cooperativity (alpha factor)” value in assay [1] (setting [3]) is 7. The compound also registered an EC50 in assay [2] (setting [4]) of 0.06 µM.

For `O=C(NC(c1cccc(F)c1)C(F)(F)F)c1cn(-c2ccc(F)cc2F)c2nc(N3C[C@@H](O)CC3=O)ccc2c1=O` (mixture of isomers) [Example 272, 1-(2,4-Difluorophenyl)-7-[(4S)-4-hydroxy-2-oxopyrrolidin-1-yl]-4-oxo-N-[2,2,2-trifluoro-1-(3-fluorophenyl)ethyl]-1,4-dihydro-1,8-naphthyridine-3-carboxamide], the “Cooperativity (alpha factor)” value in assay [1] (setting [3]) is listed as 55. This compound yielded an EC50 in assay [2] (setting [4]) of 0.033 µM.

Turning to `CCC(NC(=O)c1cn(-c2c(F)cc(F)cc2F)c2nc(N3C[C@@H](O)[C@H](O)C3)ccc2c1=O)C(F)(F)C(F)(F)F` (single isomer, unassigned) [Example 524], the “Cooperativity (alpha factor)” value in assay [1] (shift of acetylcholine dose-response curve (Allosteric EC50 shift)) came to 60.

Consider `CN(C)c1ccc2c(=O)c(C(=O)NCc3c(Cl)cccc3C(F)(F)F)cn(-c3ccc(F)cc3F)c2n1` [Example 58, N-[2-Chloro-6-(trifluoromethyl)benzyl]-1-(2,4-difluorophenyl)-7-(dimethylamino)-4-oxo-1,4-dihydro-l,8-naphthyridine-3-carboxamide], for which the “Cooperativity (alpha factor)” value in assay [1] (setting [3]) is 9.

Turning to `CC[C@H](NC(=O)c1cn(-c2c(F)cc(F)cc2F)c2nc(N3CCN(CCO)C3=O)ccc2c1=O)C(F)(F)F` [Example 362, 7-[3-(2-Hydroxyethyl)-2-oxoimidazolidin-1-yl]-4-oxo-N-[(2S)-1,1,1-trifluorobutan-2-yl]-1-(2,4,6-trifluorophenyl)-1,4-dihydro-1,8-naphthyridine-3-carboxamide], the “Cooperativity (alpha factor)” value in assay [1] (setting [3]) amounted to 27.

`O=C(N[C@@H](C1CC1)C(F)(F)F)c1cn(-c2c(F)cc(F)cc2F)c2nc(N3CCC(O)(CO)CC3)ccc2c1=O` [Example 663, N-[(1 S)-1-Cyclopropyl-2,2,2-trifluoroethyl]-7-[4-hydroxy-4-(hydroxymethyl)piperidin-1-yl]-4-oxo-1-(2,4,6-trifluorophenyl)-1,4-dihydro-1,8-naphthyridine-3-carboxamide] displayed an EC50 in assay [2] (setting [5]) of 0.03 µM. The Emax in assay [2] (M2-GIRK1/4 reporter cells) is 90.5%.

`O=C(N[C@@H](C1CC1)C(F)(F)F)c1cn(-c2c(F)cc(F)cc2F)c2nc(N(CCO)CCO)ccc2c1=O` [Example 664, 7-[Bis(2-hydroxyethyl)amino]-N-[(1S)-1-cyclopropyl-2,2,2-trifluoroethyl]-4-oxo-1-(2,4,6-trifluorophenyl)-1,4-dihydro-1,8-naphthyridine-3-carboxamide]: the response in assay [2] (setting [5]) was half-maximal at 0.1 µM (EC50). For the same compound, the Emax in assay [2] (M2-GIRK1/4 reporter cells) amounted to 98%.

`CC1(O)CCCN(c2ccc3c(=O)c(C(=O)N[C@@H](C4CC4)C(F)(F)F)cn(-c4c(F)cc(F)cc4F)c3n2)C1` (stereo partly drawn) [Example 665, N-[(1 S)-1-Cyclopropyl-2,2,2-trifluoroethyl]-7-[3-hydroxy-3-methylpiperidin-1-yl]-4-oxo-1-(2,4,6-trifluorophenyl)-1,4-dihydro-1,8-naphthyridine-3-carboxamide] came in with an EC50 in assay [2] (setting [5]) of 0.073 µM. Besides, the Emax in assay [2] (M2-GIRK1/4 reporter cells) is 92.5%.

Compound `O=C(N[C@@H](C1CC1)C(F)(F)F)c1cn(-c2c(F)cc(F)cc2F)c2nc(N3C[C@@H](C(=O)O)OC3=O)ccc2c1=O` [Example 667, (5S)-3-[6-{[(1S)-1-Cyclopropyl-2,2,2-trifluoroethyl]carbamoyl}-5-oxo-8-(2,4,6-trifluorophenyl)-5,8-dihydro-1,8-naphthyridin-2-yl]-2-oxo-1,3-oxazolidine-5-carboxylic acid] showed an EC50 in assay [2] (setting [5]) of 3.85 µM. The Emax in assay [2] (M2-GIRK1/4 reporter cells) amounted to 100%.

`NC(=O)[C@@H]1CN(c2ccc3c(=O)c(C(=O)N[C@@H](C4CC4)C(F)(F)F)cn(-c4c(F)cc(F)cc4F)c3n2)C(=O)O1` [Example 668, 7-[(5S)-5-Carbamoyl-2-oxo-1,3-oxazolidin-3-yl]-N-[(1 S)-1-cyclopropyl-2,2,2-trifluoroethyl]-4-oxo-1-(2,4,6-trifluorophenyl)-1,4-dihydro-1,8-naphthyridine-3-carboxamide] registered an EC50 in assay [2] (setting [5]) of 0.089 µM. The Emax in assay [2] (M2-GIRK1/4 reporter cells) is 100%.

Regarding `COC(=O)[C@H]1CN(c2ccc3c(=O)c(C(=O)N[C@@H](C4CC4)C(F)(F)F)cn(-c4c(F)cc(F)cc4F)c3n2)C(=O)O1` [Example 669, Methyl (5R)-3-[6-{[(1S)-1-cyclopropyl-2,2,2-trifluoroethyl]carbamoyl}-5-oxo-8-(2,4,6-trifluorophenyl)-5,8-dihydro-1,8-naphthyridin-2-yl]-2-oxo-1,3-oxazolidine-5-carboxylate], the midpoint of the response in assay [2] (setting [5]), the EC50, lay at 0.106 µM. The Emax in assay [2] (M2-GIRK1/4 reporter cells) was 84.9%.

`O=C(N[C@@H](C1CC1)C(F)(F)F)c1cn(-c2c(F)cc(F)cc2F)c2nc(N3C[C@H](C(=O)O)OC3=O)ccc2c1=O` [Example 670, (5R)-3-[6-{[(1S)-1-Cyclopropyl-2,2,2-trifluoroethyl]carbamoyl}-5-oxo-8-(2,4,6-trifluorophenyl)-5,8-dihydro-1,8-naphthyridin-2-yl]-2-oxo-1,3-oxazolidine-5-carboxylic acid] came in with an EC50 in assay [2] (setting [5]) of 1.45 µM. Further, the Emax in assay [2] (M2-GIRK1/4 reporter cells) stood at 66.5%.

In the case of `NC(=O)[C@H]1CN(c2ccc3c(=O)c(C(=O)N[C@@H](C4CC4)C(F)(F)F)cn(-c4c(F)cc(F)cc4F)c3n2)C(=O)O1` [Example 671, 7-[(5R)-5-Carbamoyl-2-oxo-1,3-oxazolidin-3-yl]-N-[(15)-1-cyclopropyl-2,2,2-trifluoroethyl]-4-oxo-1-(2,4,6-trifluorophenyl)-1,4-dihydro-1,8-naphthyridine-3-carboxamide], the EC50 in assay [2] (setting [5]) amounted to 0.1 µM. Also, the Emax in assay [2] (M2-GIRK1/4 reporter cells) turned out to be 94%.

As for `CC(C)Nc1ccc2c(=O)c(C(=O)NC34CCC(CC3)CC4)cn(-c3ccc(F)cc3F)c2n1` [compound 159], the EC50 in assay [2] (setting [4]) amounted to 0.117 µM.

Regarding `O=C(NCc1c(Cl)cccc1Cl)c1cn(-c2ccc(F)cc2F)c2nc(N3CC(O)CC3=O)ccc2c1=O` (stereo not drawn) [compound 183], the EC50 in assay [2] (setting [4]) worked out at 0.166 µM.

`CC(C)(NC(=O)c1cn(-c2ccc(F)cc2F)c2nc(N3CCCS3(=O)=O)ccc2c1=O)c1c(F)cccc1F` [compound 185] showed an EC50 in assay [2] (setting [4]) of 0.156 µM.
